Patent US20110105492A1, “ARYL SUBSTITUTED ARYLINDENOPYRIMIDINES AND THEIR USE AS HIGHLY SELECTIVE ADENOSINE A2a RECEPTOR ANTAGONISTS” (priority 2009, published 2011)

Tests used:
[1] = target: T1, human adenosine A2A receptor (Homo sapiens, UniProt P29274); assay: Adenosine A2A Receptor Functional Assay (A2AGAL2); assay type: cell-based; conditions: for IC50: CHO-K1 cells overexpressing human A2A, cAMP inducible beta-galactosidase reporter, antagonist vs 15 nM NECA challenge; for A1/A2A: ratio of A1Gal2 to A2AGal2 value
T1 construct: expressed in transfected cells; host or cells: CHO-K1 cells with a cAMP inducible beta-galactosidase reporter gene
T1 sequence (P29274 whole entry): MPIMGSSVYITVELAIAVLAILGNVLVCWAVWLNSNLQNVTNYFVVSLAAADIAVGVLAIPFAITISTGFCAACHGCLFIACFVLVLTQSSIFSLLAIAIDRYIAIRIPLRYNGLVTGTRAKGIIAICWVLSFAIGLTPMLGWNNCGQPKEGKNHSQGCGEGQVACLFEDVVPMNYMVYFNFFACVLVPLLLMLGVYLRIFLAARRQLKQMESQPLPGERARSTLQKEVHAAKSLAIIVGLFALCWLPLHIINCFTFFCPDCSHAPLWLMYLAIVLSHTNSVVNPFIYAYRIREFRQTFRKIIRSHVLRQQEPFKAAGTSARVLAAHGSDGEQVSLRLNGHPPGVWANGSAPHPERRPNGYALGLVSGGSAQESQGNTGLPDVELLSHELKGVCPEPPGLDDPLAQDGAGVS
Protocol: Adenosine A2A Receptor Functional Assay (A2AGAL2)
To initiate the functional assay, cryopreserved CHO-K1 cells overexpressing the human adenosine A2A receptor and containing a cAMP inducible beta-galactosidase reporter gene were thawed, centrifuged, DMSO containing media removed, and then seeded with fresh culture media into clear 384-well tissue culture treated plates (BD #353961) at a concentration of 10K cells/well. Prior to assay, these plates were cultured for two days at 37° C., 5% CO2, 90% Rh. On the day of the functional assay, culture media was removed and replaced with 45 μL assay medium (Hams/F-12 Modified (Mediatech # 10-080CV) supplemented w/0.1% BSA). Test compounds were diluted and 11 point curves created at a 1000× concentration in 100% DMSO. Immediately after addition of assay media to the cell plates, 50 nL of the appropriate test compound antagonist or agonist control curves were added to cell plates using a Cartesian Hummingbird. Compound curves were allowed to incubate at room temperature on cell plates for approximately 15 minutes before addition of a 15 nM NECA (Sigma E2387) agonist challenge (5 μL volume). A control curve of NECA, a DMSO/Media control, and a single dose of Forskolin (Sigma F3917) were also included on each plate. After additions, cell plates were allowed to incubate at 37° C., 5% CO2, 90% Rh for 5.5-6 hours. After incubation, media were removed, and cell plates were washed 1×50 μL with DPBS w/o Ca & Mg (Mediatech 21-031-CV). Into dry wells, 20 μL of 1× Reporter Lysis Buffer (Promega E3971 (diluted in dH2O from 5× stock)) was added to each well and plates frozen at −20° C. overnight. For β-galactosidase enzyme colorimetric assay, plates were thawed out at room temperature and 20 μL 2× assay buffer (Promega) was added to each well. Color was allowed to develop at 37° C., 5% CO2, 90% Rh for 1-1.5 hours or until reasonable signal appeared. The colorimetric reaction was stopped with the addition of 60 μL/well 1M sodium carbonate. Plates were counted at 405 nm on a SpectraMax Microplate Reader (Molecular Devices). Data was analyzed in Microsoft Excel and IC/EC50 curves were fit using a standardized macro.

[2] = target: T2, human adenosine A1 receptor (Homo sapiens, UniProt P30542); assay: Adenosine A1 Receptor Functional Assay (A1GAL2); assay type: cell-based; conditions: CHO-K1 cells overexpressing human A1, cAMP inducible beta-galactosidase reporter, antagonist vs 4 nM r-PIA/1 uM Forskolin challenge
T2 construct: expressed in transfected cells; host or cells: CHO-K1 cells with a cAMP inducible beta-galactosidase reporter gene
T2 sequence (P30542 1-326): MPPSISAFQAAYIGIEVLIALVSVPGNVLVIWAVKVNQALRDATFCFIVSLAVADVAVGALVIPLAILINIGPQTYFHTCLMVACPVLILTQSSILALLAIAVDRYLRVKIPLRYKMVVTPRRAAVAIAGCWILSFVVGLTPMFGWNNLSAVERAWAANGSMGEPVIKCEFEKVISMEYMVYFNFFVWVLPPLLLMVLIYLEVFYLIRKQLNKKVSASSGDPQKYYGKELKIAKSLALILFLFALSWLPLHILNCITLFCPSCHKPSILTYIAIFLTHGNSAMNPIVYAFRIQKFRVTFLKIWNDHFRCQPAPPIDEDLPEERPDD
Protocol: Adenosine A1 Receptor Functional Assay (A1GAL2)
To initiate the functional assay, cryopreserved CHO-K1 cells overexpressing the human adenosine A1 receptor and containing a cAMP inducible beta-galactosidase reporter gene were thawed, centrifuged, DMSO containing media removed, and then seeded with fresh culture media into clear 384-well tissue culture treated plates (BD #353961) at a concentration of 10K cells/well. Prior to assay, these plates were cultured for two days at 37° C., 5% CO2, 90% Rh. On the day of the functional assay, culture media was removed and replaced with 45 μL assay medium (Hams/F-12 Modified (Mediatech # 10-080CV) supplemented w/0.1% BSA). Test compounds were diluted and 11 point curves created at a 1000× concentration in 100% DMSO. Immediately after addition of assay media to the cell plates, 50 nL of the appropriate test compound antagonist or agonist control curves were added to cell plates using a Cartesian Hummingbird. Compound curves were allowed to incubate at room temperature on cell plates for approximately 15 minutes before addition of a 4 nM r-PIA (Sigma P4532)/1 uM Forskolin (Sigma F3917) agonist challenge (5 μL volume). A control curve of r-PIA in 1 uM Forskolin, a DMSO/Media control, and a single dose of Forskolin were also included on each plate. After additions, cell plates were allowed to incubate at 37° C., 5% CO2, 90% Rh for 5.5-6 hours. After incubation, media was removed, and cell plates were washed 1×50 μL with DPBS w/o Ca & Mg (Mediatech 21-031-CV). Into dry wells, 20 μL of 1× Reporter Lysis Buffer (Promega E3971 (diluted in dH2O from 5× stock)) was added to each well and plates frozen at −20° C. overnight. For β-galactosidase enzyme colorimetric assay, plates were thawed out at room temperature and 20 μL 2× assay buffer (Promega) was added to each well. Color was allowed to develop at 37° C., 5% CO2, 90% Rh for 1-1.5 hours or until reasonable signal appeared. The colorimetric reaction was stopped with the addition of 60 μL/well 1M sodium carbonate. Plates were counted at 405 nm on a SpectraMax Microplate Reader (Molecular Devices). Data was analyzed in Microsoft Excel and IC/EC50 curves were fit using a standardized macro.

Row | IC50 [1] [µM] | A1/A2A [1] | IC50 [2] [µM] | SMILES
1 | 0.0086 | 66.2791 | 0.57 | Nc1nc(-c2ccccc2)c2c(n1)-c1c(cccc1-c1ccccc1)C2=O [Example 14, 2-Amino-4,9-diphenyl-indeno[1,2-d]pyrimidin-5-one]
2 | 0.0039 | 69.2308 | 0.27 | Nc1nc(-c2ccc(F)cc2)c2c(n1)-c1c(cccc1-c1ccc(OCCN3CCOCC3)cc1)C2=O [Example 13, 2-Amino-4-(4-fluoro-phenyl)-9-[4-(2-morpholin-4-yl-ethoxy)-phenyl]-indeno[1,2-d]pyrimidin-5-one]
3 | 0.026 | 342.308 | 8.9 | Nc1nc(-c2ccc(F)cc2)c2c(n1)-c1c(cccc1-c1cccc(F)c1)C2=O [Example 3, 2-Amino-4-(4-fluoro-phenyl)-9-(3-fluoro-phenyl)-indeno[1,2-d]pyrimidin-5-one]
4 | 0.01 | 310 | 3.1 | Nc1nc(-c2ccc(F)cc2)c2c(n1)-c1c(cccc1-c1ccc(N3CCN(Cc4ccccc4)CC3)cc1)C2=O [Example 4, 2-Amino-9-[4-(4-benzyl-piperazin-1-yl)-phenyl]-4-(4-fluoro-phenyl)-indeno[1,2-d]pyrimidin-5-one]
5 | 0.01 | 76 | 0.76 | CCN1CCN(c2ccc(-c3cccc4c3-c3nc(N)nc(-c5ccc(F)cc5)c3C4=O)cc2)CC1 [Example 12, 2-Amino-9-[4-(4-ethyl-piperazin-1-yl)-phenyl]-4-(4-fluoro-phenyl)-indeno[1,2-d]pyrimidin-5-one]
6 | 0.031 | 58.0645 | 1.8 | Cc1cccc(-c2cccc3c2-c2nc(N)nc(-c4ccc(F)cc4)c2C3=O)c1 [Example 16, 2-Amino-4-(4-fluoro-phenyl)-9-m-tolyl-indeno[1,2-d]pyrimidin-5-one]
7 | 0.023 | 182.609 | 4.2 | CCC(CC)N1CCN(c2ccc(-c3cccc4c3-c3nc(N)nc(-c5ccc(F)cc5)c3C4=O)cc2)CC1 [Example 5, 2-Amino-9-{4-[4-(1-ethyl-propyl)-piperazin-1-yl]-phenyl}-4-(4-fluoro-phenyl)-indeno[1,2-d]pyrimidin-5-one]
8 | 0.016 | 112.5 | 1.8 | CC(C)N1CCN(c2ccc(-c3cccc4c3-c3nc(N)nc(-c5ccc(F)cc5)c3C4=O)cc2)CC1 [Example 9, 2-Amino-4-(4-fluoro-phenyl)-9-[4-(4-isopropyl-piperazin-1-yl)-phenyl]-indeno[1,2-d]pyrimidin-5-one]
9 | 0.0018 | 127.778 | 0.23 | COCCN1CCN(c2ccc(-c3cccc4c3-c3nc(N)nc(-c5ccc(F)cc5)c3C4=O)cc2)CC1 [Example 8, 2-Amino-4-(4-fluoro-phenyl)-9-{4-[4-(2-methoxy-ethyl)-piperazin-1-yl]-phenyl}-indeno[1,2-d]pyrimidin-5-one]
10 | 0.0063 | 52.381 | 0.33 | COc1ccc(-c2cccc3c2-c2nc(N)nc(-c4ccccc4)c2C3=O)cc1 [Example 17, 2-Amino-9-(4-methoxy-phenyl)-4-phenyl-indeno[1,2-d]pyrimidin-5-one]
11 | 0.011 | 100 | 1.1 | CC(C)CCN1CCN(c2ccc(-c3cccc4c3-c3nc(N)nc(-c5ccc(F)cc5)c3C4=O)cc2)CC1 [Example 11, 2-Amino-4-(4-fluoro-phenyl)-9-{4-[4-(3-methyl-butyl)-piperazin-1-yl]-phenyl}-indeno[1,2-d]pyrimidin-5-one]
12 | 0.0071 | 591.549 | 4.2 | CC(C)CN1CCN(c2ccc(-c3cccc4c3-c3nc(N)nc(-c5ccc(F)cc5)c3C4=O)cc2)CC1 [Example 2, 2-Amino-4-(4-fluoro-phenyl)-9-[4-(4-isobutyl-piperazin-1-yl)-phenyl]-indeno[1,2-d]pyrimidin-5-one]
13 | 0.0087 | 59.7701 | 0.52 | CCCN1CCN(c2ccc(-c3cccc4c3-c3nc(N)nc(-c5ccc(F)cc5)c3C4=O)cc2)CC1 [Example 15, 2-Amino-4-(4-fluoro-phenyl)-9-[4-(4-propyl-piperazin-1-yl)-phenyl]-indeno[1,2-d]pyrimidin-5-one]
14 | 0.0083 | 131.69 | 1.1 | Nc1nc(-c2ccc(F)cc2)c2c(n1)-c1c(cccc1-c1ccc(N3CCN(CC4CC4)CC3)cc1)C2=O [Example 7, 2-Amino-9-[4-(4-cyclopropylmethyl-piperazin-1-yl)-phenyl]-4-(4-fluoro-phenyl)-indeno[1,2-d]pyrimidin-5-one]
15 | 0.0026 | 103.846 | 0.27 | N#Cc1ccc(-c2cccc3c2-c2nc(N)nc(-c4ccc(F)cc4)c2C3=O)cc1 [Example 10, 4-[2-Amino-4-(4-fluoro-phenyl)-5-oxo-5H-indeno[1,2-d]pyrimidin-9-yl]-benzonitrile]
16 | 0.0098 | 142.857 | 1.4 | CCC(C)N1CCN(c2ccc(-c3cccc4c3-c3nc(N)nc(-c5ccc(F)cc5)c3C4=O)cc2)CC1 (stereo not drawn) [Example 6, 2-Amino-9-[4-(4-sec-butyl-piperazin-1-yl)-phenyl]-4-(4-fluoro-phenyl)-indeno[1,2-d]pyrimidin-5-one]
17 | 0.0018 | 3055.56 | 5.5 | Nc1nc(-c2ccc(F)cc2)c2c(n1)-c1c(cccc1-c1ccc(N3CCN(CCC(F)(F)F)CC3)cc1)C2=O [Example 1, 2-Amino-4-(4-fluoro-phenyl)-9-{4-[4-(3,3,3-trifluoro-propyl)-piperazin-1-yl]-phenyl}-indeno[1,2-d]pyrimidin-5-one]
